Data as given in patent publication US9850283B2, “Macrocyclic inhibitors of the PD-1/PD-L1 and CD80(B7-1)/PD-L1 protein/protein interactions” (BRISTOL-MYERS SQUIBB COMPANY, priority 2013, dated 2017).
pIC50: −log10 of the molar value. Where two headings read alike, the source gives them in different places. Positions of bridges follow the written chain, without caps; N, C: chain ends. Non-standard residues stand in square brackets, D forms with d. Residues, ends and D or L forms follow the SMILES beside them. ξ: configuration not given here. Trp(5-Cl) = N[C@@H](Cc1c[nH]c2ccc(Cl)cc12)C(=O)O; Phe(4-CH2NH2) = NCc1ccc(C[C@H](N)C(=O)O)cc1; Phe(3-Cl) = N[C@@H](Cc1cccc(Cl)c1)C(=O)O; Bta = N[C@@H](Cc1csc2ccccc12)C(=O)O; Hyp = O=C(O)[C@@H]1C[C@@H](O)CN1; NMeF = CN[C@@H](Cc1ccccc1)C(=O)O; NMeNle = CCCC[C@H](NC)C(=O)O; NMeS = CN[C@@H](CO)C(=O)O; NMeA = CN[C@@H](C)C(=O)O; Dab = NCC[C@H](N)C(=O)O; ξC = NC(CS)C(=O)O; Sar = CNCC(=O)O

Assays:
Human PD-L1/PD-1 = target: T1, Human PD-L1/PD-1 (Homo sapiens, UniProt Q9NZQ7); assay: HTRF PD-1-Ig/PD-L1-His binding assay (human PD-L1)
T1 construct: made in house; host or cells: HEK293T
Method in brief: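 Soluble Fc-fused PD-1 and His-tagged PD-L1 (truncated before the transmembrane region) were combined in dPBS with 0.1% (w/v) BSA and 0.05% (v/v) Tween-20. Binding was read by HTRF using europium cryptate anti-Ig antibody (1 nM final) and APC anti-His antibody (20 nM final).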

[1] = target: T2, LK35.2-hPD-L1 cells / PE-labeled PD-1-Ig (Homo sapiens, UniProt Q9NZQ7); assay: LK35.2-hPD-L1 cell binding high-content screening assay; format: cell-based
T2 construct: expressed in transfected cells; host or cells: LK35.2 mouse B cell line
Method in brief: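 Fluorescent PD-1-Ig binding to PD-L1-expressing LK35.2 cells, imaged after washing. Conditions: 1 nM PE-PD-1-Ig, 37 °C, 1 h, RPMI with 10% fetal calf serum.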

[2] = cluster symbol, read-out: HTRF IC50 cluster
[3] = cell binding assay, cell line not given, cluster symbol, read-out: CBA IC50 cluster
[4] = cluster symbol, cell line of CBA not given (LK35.2-hPD-L1 or 293T-hPD-L1), read-out: CBA IC50 cluster

T1 sequence (Q9NZQ7 with tags, fused parts or gaps): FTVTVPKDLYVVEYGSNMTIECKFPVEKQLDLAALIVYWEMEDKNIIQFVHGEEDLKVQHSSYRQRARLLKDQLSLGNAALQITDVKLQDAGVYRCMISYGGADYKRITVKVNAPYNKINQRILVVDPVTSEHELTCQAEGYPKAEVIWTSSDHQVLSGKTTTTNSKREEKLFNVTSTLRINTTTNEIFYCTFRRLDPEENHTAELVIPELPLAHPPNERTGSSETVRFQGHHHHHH
T2 sequence (Q9NZQ7 19-290): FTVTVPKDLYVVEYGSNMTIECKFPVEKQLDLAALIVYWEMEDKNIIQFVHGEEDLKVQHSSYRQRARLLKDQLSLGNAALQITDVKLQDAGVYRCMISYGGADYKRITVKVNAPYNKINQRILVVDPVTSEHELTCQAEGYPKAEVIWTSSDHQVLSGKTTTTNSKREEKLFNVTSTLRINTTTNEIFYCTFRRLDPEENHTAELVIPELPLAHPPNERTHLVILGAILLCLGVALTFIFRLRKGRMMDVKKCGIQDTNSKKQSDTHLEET

In the case of `CCCC[C@H]1C(=O)N(C)CC(=O)N[C@@H](CC(=O)O)C(=O)N[C@@H](C(C)C)C(=O)N(C)[C@@H](Cc2ccccc2)C(=O)N[C@@H](Cc2ccc(O)cc2)C(=O)N(C)CC(=O)N[C@@H](Cc2c[nH]c3ccccc23)C(=O)N[C@@H](Cc2ccccc2)C(=O)N[C@@H](CC(C)C)C(=O)N[C@H](C(=O)NCC(N)=O)CSCC(=O)N[C@@H](Cc2ccccc2)C(=O)N(C)[C@@H](Cc2ccccc2)C(=O)N1C` [Example 3540] (HELM PEPTIDE1{[O=C(C[*:3])[*:2]].F.[meF].[CCCC[C@@H](C(=O)[*:2])N(C)[*:1]].[Sar].D.V.[meF].Y.[Sar].W.F.L.C.G.[am]}$PEPTIDE1,PEPTIDE1,1:R3-14:R3$$$V2.0), the pIC50 (Human PD-L1/PD-1; [2]) was less than 7.52 and the pIC50 [1, 3] was less than 7.13.

For `CCCC[C@H]1C(=O)N(C)[C@@H](CCCC)C(=O)N[C@@H](CCCNC(=N)N)C(=O)NC(C(=O)NCC(N)=O)CSCC(=O)N[C@@H](Cc2ccccc2)C(=O)N(C)[C@@H](C)C(=O)N[C@@H](CC(N)=O)C(=O)N2CCC[C@H]2C(=O)N[C@@H](Cc2cnc[nH]2)C(=O)N[C@@H](CC(C)C)C(=O)N[C@@H](CCNC(=O)C2CCCCC2)C(=O)N[C@@H](Cc2c[nH]c3ccccc23)C(=O)N[C@@H](CO)C(=O)N[C@@H](Cc2c[nH]c3ccccc23)C(=O)N1C` (some centres unmarked) [Example 1021], the pIC50 (Human PD-L1/PD-1; read-out: HTRF IC50 value) was 6.74 and the pIC50 ([1]; cell line of CBA not given (LK35.2-hPD-L1 or 293T-hPD-L1), read-out: CBA IC50 value) was 6.58.

Compound `CCCC[C@H]1C(=O)N(C)[C@@H](CCCC)C(=O)N[C@@H](CCN)C(=O)N[C@H](C(=O)NCC(N)=O)CSCC(=O)N[C@@H](Cc2ccc(O)cc2)C(=O)N(C)[C@@H](C)C(=O)N[C@@H](CC(N)=O)C(=O)N2CCC[C@H]2C(=O)N[C@@H](Cc2cnc[nH]2)C(=O)N[C@@H](CCC(=O)O)C(=O)N2C[C@H](O)C[C@H]2C(=O)N[C@@H](Cc2csc3ccccc23)C(=O)N[C@@H](CCN)C(=O)N[C@@H](Cc2c[nH]c3ccccc23)C(=O)N1C` [Example 5055] ({CH2CO}-Y[NMeA]NPHE[Hyp][Bta][Dab]W[NMeNle][NMeNle][Dab]CG-NH2; thioether N-14) has a pIC50 (Human PD-L1/PD-1; [2]) of less than 7.52 and a pIC50 [1, 3] of less than 7.13.

In the case of `CCCC[C@H]1C(=O)N(C)[C@@H](CO)C(=O)N[C@@H](CCCNC(=N)N)C(=O)NC(C(=O)NCC(N)=O)CSCC(=O)N[C@@H](Cc2ccc(O)cc2)C(=O)N(C)[C@@H](C)C(=O)N[C@@H](CC(N)=O)C(=O)N2CCC[C@H]2C(=O)N[C@@H](Cc2cnc[nH]2)C(=O)N[C@@H](CC(C)C)C(=O)N2C[C@H](O)C[C@H]2C(=O)N[C@@H](Cc2c[nH]c3ccccc23)C(=O)N[C@@H](CO)C(=O)N[C@@H](Cc2csc3ccccc23)C(=O)N1C` (some centres unmarked) [Example 9033] ({CH2CO}-Y[NMeA]NPHL[Hyp]WS[Bta][NMeNle][NMeS]R[ξC]G-NH2; thioether N-14), the pIC50 (Human PD-L1/PD-1; [2]) was 7.52 to 8.17 and the pIC50 [1, 3] was 8.33 to 9.80.

`CCCC[C@H]1C(=O)N(C)CC(=O)N[C@@H](CC(=O)O)C(=O)N[C@@H](C(C)C)C(=O)N(C)[C@@H](Cc2ccccc2)C(=O)N[C@@H](Cc2ccc(CN)cc2)C(=O)N(C)CC(=O)N[C@@H](Cc2csc3ccccc23)C(=O)N[C@@H](Cc2ccc(O)cc2)C(=O)N[C@@H](CC(C)C)C(=O)N[C@H](C(=O)NCC(N)=O)CSCC(=O)N[C@@H](Cc2cccc(Cl)c2)C(=O)N(C)[C@@H](Cc2ccccc2)C(=O)N1C` [Example 3118] ({CH2CO}-[Phe(3-Cl)][NMeF][NMeNle][Sar]DV[NMeF][Phe(4-CH2NH2)][Sar][Bta]YLCG-NH2; thioether N-13) was tested, and the pIC50 (Human PD-L1/PD-1; [2]) was 7.52 to 8.17 and the pIC50 [1, 4] was 7.14 to 8.32.

Compound `CCCC[C@H]1C(=O)N(C)[C@@H](CCCC)C(=O)N[C@@H](CCCNC(=N)N)C(=O)N[C@H](C(=O)NCC(N)=O)CSCC(=O)N[C@@H](Cc2ccccc2)C(=O)N(C)[C@@H](C)C(=O)N[C@@H](CC(N)=O)C(=O)N2CCC[C@H]2C(=O)N[C@@H](Cc2cnc[nH]2)C(=O)N[C@@H](CC(C)C)C(=O)N(C)CC(=O)N[C@@H](Cc2c[nH]c3ccc(Cl)cc23)C(=O)N[C@@H](CO)C(=O)N[C@@H](Cc2c[nH]c3ccccc23)C(=O)N1C` [Example 1026] ({CH2CO}-F[NMeA]NPHL[Sar][Trp(5-Cl)]SW[NMeNle][NMeNle]RCG-NH2; thioether N-14) has a pIC50 (Human PD-L1/PD-1; [2]) of less than 7.52 and a pIC50 [1, 4] of less than 7.13.

Work on `CCCC[C@H]1C(=O)N(C)CC(=O)N[C@@H](CC(=O)O)C(=O)N[C@@H](C(C)C)C(=O)N(C)[C@@H](Cc2ccccc2)C(=O)N[C@H](Cc2ccc(O)cc2)C(=O)N(C)CC(=O)N[C@@H](Cc2c[nH]c3ccccc23)C(=O)N[C@H](Cc2ccc(O)cc2)C(=O)N[C@@H](CC(C)C)C(=O)N[C@H](C(=O)NCC(N)=O)CSCC(=O)N[C@@H](Cc2ccccc2)C(=O)N(C)[C@@H](Cc2ccccc2)C(=O)N1C` [Example 3564] (HELM PEPTIDE1{[O=C(C[*:3])[*:2]].F.[meF].[CCCC[C@@H](C(=O)[*:2])N(C)[*:1]].[Sar].D.V.[meF].[dY].[Sar].W.[dY].L.C.G.[am]}$PEPTIDE1,PEPTIDE1,1:R3-14:R3$$$V2.0) yielded a pIC50 (Human PD-L1/PD-1; value given instead of cluster, read-out: HTRF IC50 value) of less than 5.00 and a pIC50 ([1]; cell binding assay, cell line not given, value given instead of cluster, read-out: CBA IC50 value) of less than 5.00.
